One data set has as its system IL-1β. Briefly: P. acnes-induced IL-1β release in THP-1 cells (ELISA). In kind it is cell-based. Conditions: 25 μg/ml, 100% = P. acnes induced cells. The procedure: (§1) Method: Preparation of Stimulant for Inflammation: P. acnes culture suspension was prepared in PBS and the cell number in the suspension was adjusted to approximately 5×10^8 CFU/ml by measuring the cell density using a Densimat. The bacterial suspension was then heat killed at 80° C. for 30 min and stored at −80° C. until further use.
(§2) Cells were seeded in a 96-well format (2×10^5 THP-1 cells per well) in media containing 10% FBS. The cells were stimulated to induce inflammatory cytokines using 3 McFarland equivalent heat-killed P. acnes. Cells in control wells were treated with PBS. One hour after induction with P. acnes, test agents were added to the induced cells at appropriate concentrations to be tested (compound 91 at 25 μg/ml). The plates were incubated at 37° C. for 24 hours. After 24 h, the plates were centrifuged to pellet the cells and the supernatants were collected. The cell culture supernatants thus obtained were analyzed for levels of cytokines (IL-1α, IL-1β, IL-6 and IL-8) by ELISA using R&D Systems kits for individual cytokines following the manufacturer's instructions.

For the next data set, the system named is IL-6. As to the kind of experiment: P. acnes-induced IL-6 release in THP-1 cells (ELISA). Format: cell-based. The settings on record: 25 μg/ml, THP-1 cells, 100% = P. acnes induced cells. A general note: ELISA stands for enzyme-linked immunosorbent assay.
Data set [1] concerns P. acnes MTCC 1951. Briefly: MIC by micro broth dilution (Alamar blue), clindamycin-susceptible P. acnes. Format: cell-based, Propionibacterium acnes. The settings on record: for MIC: Cutibacterium acnes, MTCC1951; for Activity / bacterial killing, dose response curve (in words): clindamycin-susceptible MTCC 1951. The method, boiled down: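 P. acnes in BHI broth, inoculum adjusted to 0.5 McFarland and diluted 100-fold, exposed to serially diluted compound at 37° C. for 48-72 h under anaerobic conditions. Growth read by OD at 595 nm; MIC recorded after Alamar blue addition.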

The test system of another data set is P. acnes CCARM 9010. As to the kind of experiment: MIC by micro broth dilution (Alamar blue), clindamycin-resistant/nonresponsive P. acnes. In kind it is cell-based, Propionibacterium acnes. Conditions: for Activity / bacterial killing, dose response curve (in words): clindamycin-nonresponsive CCARM 9010. For orientation: In broth dilution the organism is exposed to a series of concentrations in liquid medium.

The test system of data set [2] is P. acnes MTCC 1951. Format: cell-based, Propionibacterium acnes. The settings on record: for MPC/MIC: ratio against P. acnes. The procedure: 3 to 4 Petri plates containing 48 h P. acnes culture was suspended in sterile Phosphate buffer saline, PBS (pH 7.2) and turbidity was adjusted to optical density of 1 at 600 nm (10^9 cells/ml). 50 ml of this culture suspension was centrifuged at 4000 rpm for 40 min. The supernatant was discarded and pellet resuspended in 250 μl of sterile PBS. 50 μl of these cell suspensions (10^10 cells) was spread over the plates containing various concentrations of antibiotics (around MIC range). Plates were incubated at 37° C. for 48 h and the lowest concentration of the drug that allowed no growth was taken as its MPC.

The subject of the next data set is THP-1 cells. As to the kind of experiment: Viability of THP-1 cells under treatment. Format: cell-based. Conditions: 25 μg/ml of compound 91.
In the next data set the test system is IL-1α. As to the kind of experiment: P. acnes-induced IL-1α release in THP-1 cells (ELISA). In kind it is cell-based. The settings on record: 25 μg/ml, 100% = P. acnes induced cells. The procedure: as §1, §2

The structures appear in SMILES notation. In brackets after ≈: the same amount, converted by molar mass. Like-named read-outs stand apart in the source and are kept apart here.

Regarding `Cc1ncc([N+](=O)[O-])n1CC(O)CN1CCN(c2cc3c(cc2F)c(=O)c(C(=O)O)c2n3C(C)S2)CC1` (centres unmarked) [Compound 91, 6-Fluoro-7-{4-[2-hydroxy-3-(2-methyl-5-nitro-imidazol-1-yl)-propyl]-piperazin-1-yl}-1-methyl-4-oxo-4H-2-thia-8b-aza-cyclobuta[a]naphthalene-3-carboxylic acid], the “Percentage reduction in P. acnes induced IL-1β release” value is 20.49% in the data set on IL-1β and 20-25% in the data set on IL-1β (listed as compound 91). Moreover, the “Percentage reduction in P. acnes induced IL-6 release” value in the data set on IL-6 was 56.76%; in the data set with IL-6 (listed as compound 91) it was roughly 60%. In addition, the MIC (in general, the least concentration at which growth counts as inhibited) stood at 0.2 µg/mL (≈ 0.376 µM) with P. acnes MTCC 1951 [1] (Table 7, against P. acnes, read-out: MIC); 0.2 µg/mL (≈ 0.376 µM) in the data set on P. acnes MTCC 1951 [1] (read-out: MIC Susceptible P. acnes (1951) strain); 0.1 µg/mL (≈ 0.188 µM) in the data set on P. acnes CCARM 9010 (Cutibacterium acnes, CCARM9010, read-out: MIC Resistant P. acnes (9010) strain). Besides, the “Activity / bacterial killing, dose response curve (in words)” value is “highly efficacious bacterial killing profile” with P. acnes MTCC 1951 [1]; “lower MIC value and faster bacterial killing profile” with P. acnes MTCC 1951 [1] (listed as compound 91); “highly efficacious bacterial killing profile” in the data set on P. acnes CCARM 9010; “lower MIC value and faster bacterial killing profile” with P. acnes CCARM 9010 (listed as compound 91). Further, the MPC in the data set on P. acnes MTCC 1951 [2] (P. acnes, 10^10 cells inoculum) fell in the range of 0.3 to 0.6 µg/mL. The figures for the MPC/MIC with P. acnes MTCC 1951 [2] and in the data set with P. acnes MTCC 1951 [2] (listed as compound 91) were 1.5-3 and 1.5, respectively. Also, in the data set with THP-1 cells, the “Viability of THP-1 cells” value is 90%. In addition, the figures for the “Percentage reduction in P. acnes induced IL-1α release” value in the data set on IL-1α and in the data set with IL-1α (listed as compound 91) were 27.51% and 20-25%, respectively.

Values taken from patent US10071103B2, “Treatments for resistant acne” (VYOME BIOSCIENCES PVT. LTD., priority 2014, dated 2018).
